{
  "source": "patent US10213450B2",
  "about": "“Combination of biologically active substances for treatment of hyperglycaemic disorders” (BioActive Food GmbH, priority 2014, dated 2019)",
  "key": {"[1]": {"target": "T1, lactase phlorizin hydrolase (LPH) (Homo sapiens, UniProt P09848)", "T1 construct": "tissue of the human small intestine (0.6 mg/ml) expressing the LPH was used; from tissue; host or cells: human small intestine tissue", "T1 sequence (P09848 869-1927)": "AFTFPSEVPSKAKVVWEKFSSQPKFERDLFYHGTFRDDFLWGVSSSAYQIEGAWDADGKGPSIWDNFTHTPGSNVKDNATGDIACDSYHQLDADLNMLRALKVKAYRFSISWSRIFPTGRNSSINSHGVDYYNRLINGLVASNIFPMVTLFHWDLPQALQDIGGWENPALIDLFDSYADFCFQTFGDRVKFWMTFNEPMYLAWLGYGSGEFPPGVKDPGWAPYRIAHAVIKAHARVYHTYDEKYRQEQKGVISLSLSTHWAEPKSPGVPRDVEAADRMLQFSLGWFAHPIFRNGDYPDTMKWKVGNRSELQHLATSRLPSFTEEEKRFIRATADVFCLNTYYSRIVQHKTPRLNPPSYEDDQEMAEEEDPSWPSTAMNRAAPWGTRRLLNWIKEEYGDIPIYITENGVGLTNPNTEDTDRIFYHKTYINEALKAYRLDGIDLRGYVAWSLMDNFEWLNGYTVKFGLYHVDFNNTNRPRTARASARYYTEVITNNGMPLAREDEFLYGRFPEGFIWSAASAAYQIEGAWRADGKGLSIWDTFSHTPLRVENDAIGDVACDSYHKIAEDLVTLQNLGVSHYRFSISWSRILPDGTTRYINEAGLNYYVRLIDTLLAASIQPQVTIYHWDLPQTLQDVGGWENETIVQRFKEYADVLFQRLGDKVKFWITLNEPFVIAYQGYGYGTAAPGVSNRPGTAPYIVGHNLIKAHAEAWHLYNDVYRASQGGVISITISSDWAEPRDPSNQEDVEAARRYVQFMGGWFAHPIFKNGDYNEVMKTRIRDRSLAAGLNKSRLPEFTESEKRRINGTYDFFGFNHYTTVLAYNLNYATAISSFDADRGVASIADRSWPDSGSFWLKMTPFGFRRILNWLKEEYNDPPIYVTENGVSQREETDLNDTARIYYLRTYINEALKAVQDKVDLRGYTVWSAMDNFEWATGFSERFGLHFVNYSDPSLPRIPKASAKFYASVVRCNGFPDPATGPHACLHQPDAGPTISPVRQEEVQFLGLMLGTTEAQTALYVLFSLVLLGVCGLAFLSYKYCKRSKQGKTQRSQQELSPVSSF", "assay": "In vitro inhibition of LPH, phlorizin dihydrate as substrate, released glucose measured", "type": "biochemical", "description": "Various quercetin and kaempferol derivates were tested in vitro as inhibitors of lactase phlorizin hydrolase (LPH). The testing was carried out according to Amiri et al. (2012, J Inherit Metab Dis, 35(6): 949-54). Here, tissue of the human small intestine (0.6 mg/ml) expressing the LPH was used. Phlorizin dihydrate served as the substrate. The released glucose was measured using a standard assay (Chu & Cheung, 1978, Clin Biochem, 11(4): 187-9)."}, "[2]": {"target": "T2, human SGLT1 (Homo sapiens, UniProt P13866)", "T2 construct": "expressed in transfected cells; host or cells: Xenopus oocytes", "T2 sequence (P13866 1-664)": "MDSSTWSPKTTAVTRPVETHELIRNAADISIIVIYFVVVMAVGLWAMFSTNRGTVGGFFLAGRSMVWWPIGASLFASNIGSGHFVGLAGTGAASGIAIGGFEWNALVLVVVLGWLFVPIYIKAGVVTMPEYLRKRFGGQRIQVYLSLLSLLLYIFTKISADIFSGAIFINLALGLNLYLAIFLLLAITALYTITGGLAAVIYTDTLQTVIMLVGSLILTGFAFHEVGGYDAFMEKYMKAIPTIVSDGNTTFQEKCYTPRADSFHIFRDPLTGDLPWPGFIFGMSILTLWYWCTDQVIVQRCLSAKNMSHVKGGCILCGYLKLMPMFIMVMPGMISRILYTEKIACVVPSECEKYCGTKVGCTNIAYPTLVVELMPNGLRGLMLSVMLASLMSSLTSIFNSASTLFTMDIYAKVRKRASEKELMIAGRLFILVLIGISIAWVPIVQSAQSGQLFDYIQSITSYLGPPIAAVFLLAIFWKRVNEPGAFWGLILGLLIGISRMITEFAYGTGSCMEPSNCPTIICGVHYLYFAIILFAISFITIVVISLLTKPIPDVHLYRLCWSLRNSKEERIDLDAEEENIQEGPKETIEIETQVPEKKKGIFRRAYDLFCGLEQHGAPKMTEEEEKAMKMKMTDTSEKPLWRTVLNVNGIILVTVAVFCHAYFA", "assay": "Ex vivo model: incubation with LPH-expressing human small intestine brush border membranes, then SGLT1 activity of supernatants by two-electrode voltage-clamp in Xenopus oocytes", "type": "cell-based", "details": "LPH inhibitor 10 μg/ml alone", "description": "The effect of a combination of phlorizin and a LPH inhibitor on the uptake of glucose by the SGLT 1 transporter was tested with an ex vivo model that simulates the situation in the human intestine. The ex vivo test model uses tissue from the human small intestine which expresses the lactase phlorizin hydrolase (LPH) and is thus able to cleave phlorizin and other glycosides. Subsequently, the reaction batches that had been pre-processed in this way were tested in an in vitro assay for their inhibitory effect on the SGLT1 transporter.\nIn summary, so-called “brush border membranes” were prepared from the small intestine and incubated in an appropriate buffer with phlorizin and/or the respective LPH inhibitor for 90 minutes.\nHere, Xenopus oocytes were used which express the human SGLT1. The transport of glucose by SGLT1 can be measured because the combined transport of glucose and sodium by SGLT1 causes a current through the oocyte membrane. This current is determined electrophysiologically by a “two-electrode voltage-clamp” method. In this model, a reduction in the activity of the SGLT1 also results in a reduction of current across the cell membrane."}},
  "data": [
    {"compound": "O=c1c(O)c(-c2ccc(O)c(O)c2)oc2cc(OC3O[C@H](CO)[C@@H](O)[C@H](O)[C@H]3O)cc(O)c12", "note": "(stereo partly shown) [No. 3, 3,3′,4′,5,7-pentahydroxy flavone-7-glucoside]", "values": [
      {"measurement": "inhibition of the LPH", "setting": "[1]; concentration of 50 mg/ml (as printed in text)", "value": "about 70%"},
      {"measurement": "Glucose uptake, inhibition", "setting": "[2]; Batch A", "value": 2, "unit": "%"},
      {"measurement": "Glucose uptake, inhibition", "setting": "[2]; Batch B", "value": 2.5, "unit": "%"}
    ]},
    {"compound": "O=c1c(OC2O[C@H](CO)[C@@H](O)[C@H](O)[C@H]2O)c(-c2ccc(O)c(O)c2)oc2cc(O)cc(O)c12", "note": "(stereo partly shown) [compound 2]", "values": [
      {"measurement": "inhibition at 100 µg/mL", "setting": "[1]; 100 μg/ml inhibitor (stated in cell)", "value": 13.7, "unit": "%"}
    ]}
  ]
}
